Measurements from article PMC9790248, “Effects of CYP3A Inhibition, CYP3A Induction, and Gastric Acid Reduction on the Pharmacokinetics of Ripretinib, a Switch Control KIT Tyrosine Kinase Inhibitor” (Clinical Pharmacology in Drug Development, 2022).
Several values for one entry are separate records, joined by “and”; a condition that tells them apart may be missing. Equal values may be shown once. Read-outs that look alike come from different tables or passages of the source.

Legend:
[1] = Itraconazole (strong CYP3A inhibitor) DDI study, plasma pharmacokinetics; format: in vivo, human; settings: for AUC(0-t) / AUC(0-inf) / Cmax / half-life / Tmax: both sexes, human, plasma; for AUC(0-t) / AUC(0-inf) / Cmax / half-life: po; for AUC(0-t) / AUC(0-inf) / Cmax / half-life / Tmax / CL/F, arithmetic mean (SD) / CL/F, geometric mean (CV%): fasting; for Tmax: read-out: tmax, median (min, max); for Time postdose that mean plasma concentration remained above the LLOQ: LLOQ 2.00 ng/mL
Experimental: All studies were phase 1, fixed‐sequence, open‐label studies in healthy volunteers. One study consisted of two separate cohorts examining DDIs between ripretinib and itraconazole or pantoprazole, respectively; the rifampin study was conducted separately. Studies and cohorts were enrolled independently. Eligible participants were healthy male or female adults between 18 and 55 years of age with a body mass index (BMI) of ≥18.5 and ≤30 kg/m^2. Good health was confirmed by a physician and based on medical evaluation with no significant findings, including medical history, physical examination, laboratory tests, and 12‐lead electrocardiogram (ECG) at screening and day −1. Participants were required to abstain from alcohol, marijuana, grapefruit, Seville oranges, tangelo, star fruit, and grapefruit‐like products 14 days prior to and during the study. Participants with a positive breath test for Helicobacter pylori were excluded from the pantoprazole study.
Ripretinib and its active metabolite DP‐5439 plasma concentrations were measured using a validated high‐performance liquid chromatography (HPLC) with tandem mass spectrometry (LC‐MS/MS) assay with a lower limit of quantification (LLOQ) of 2.00 ng/mL for both analytes. In this method, the analytes (ripretinib and DP‐5439) and the internal standards (ISs; DCC‐2618‐d5 and DP‐5439‐d5) were released from human plasma samples by protein precipitation. The supernatants were chromatographed using reversed‐phase HPLC with a Betasil® C8 analytical column with deionized water (0.1% formic acid) and 40/60 acetonitrile/acetone (0.1% formic acid) as the mobile phase. Mass spectrometric detection was performed on a triple quadrupole tandem mass spectrometer API 5000 or API 5500 (Applied Biosystems/MDS Sciex, Toronto, Canada) equipped with a turbo ion spray source operated in the positive ionization mode. The source parameters were collision energy 40 eV, collision gas 6 psi, Nebulizer Gas 1, Turbo IonSpray Gas 2, and curtain gas 35 psi. Quantification was obtained by using multiple reaction monitoring mode of the transitions of mass to charge ratio [m/z] 510.3 →417 for DCC‐2618 (ripretinib), m/z 496.2 →403 for DP‐5439, m/z 515.3 →417 for DCC‐2618‐d5, and m/z 501.2 →403 for DP‐5439‐d5.
Plasma concentration–time data were analyzed using noncompartmental methods using Phoenix® WinNonlin® v7.0 (Certara USA Inc., Princeton, New Jersey). Derived PK parameters included area under the concentration–time curve from time 0 to time t (AUC0–t) and area under the concentration–time curve from 0 to infinity (AUC0–∞), maximum observed concentration (Cmax), time of maximum observed concentration (tmax), elimination half‐life (t1/2), apparent systemic clearance, and for DP‐5439, metabolite to parent ratio for AUC0–t, AUC0–∞, and Cmax.
The PK population included all participants who received ≥1 dose ripretinib and had ≥1 nonmissing PK concentration in plasma reported for ripretinib or DP‐5439. The PK evaluable set included all participants in the PK population who had ripretinib PK parameters on both ripretinib dosing days, bioanalytical results for ≥75% of planned analyses, no missed ripretinib doses and ≤2 missed perpetrator (itraconazole, pantoprazole, or rifampin) doses before the second dosing day of ripretinib, and no emesis within 8 hours of ripretinib administration. […]

[2] = Safety assessment (TEAEs), itraconazole study
Experimental: On days 8 through 10, participants received itraconazole 200 mg once daily with a meal or snack. On day 11, participants received ripretinib 50 mg 1 hour after itraconazole 200 mg under fasting conditions. On days 12 through 17, participants received itraconazole 200 mg once daily with a meal or snack. […] Safety was assessed throughout and a follow‐up safety phone call was conducted at day 24 or 7 days after the last dose of study drug if participants withdrew early.
TEAEs were defined as adverse events (AEs) that occurred/worsened during or after administration of any of the study drugs. Relationship to study drug was assessed by the investigator. The safety population included all enrolled participants who received ≥1 dose of ripretinib.
Participant demographics, clinical characteristics, and PK parameters were summarized using descriptive statistics. Safety data were summarized as n (%). […] PK parameters were calculated using Phoenix® WinNonlin® v7.0 or higher (Certara USA Inc.).

[3] = ripretinib 50 mg single oral dose + itraconazole 200 mg QD, healthy participants (N = 20)
[4] = ripretinib 50 mg single oral dose alone, healthy participants (itraconazole study, N = 20)
[5] = ripretinib 50 mg with itraconazole 200 mg QD relative to ripretinib alone
[6] = itraconazole study: ripretinib 50 mg alone and with itraconazole 200 mg QD, safety population N = 20

CCn1c(=O)c(-c2cc(NC(=O)Nc3ccccc3)c(F)cc2Br)cc2cnc(NC)cc21 [Ripretinib]
AUC(0-t) ([1]; 50 mg, ripretinib 50 mg single oral dose alone, healthy participants (itraconazole study, N = 20), read-out: AUC0–t, arithmetic mean (SD)): 4.41 µg·h/mL | AUC(0-t) ([1]; 50 mg, ripretinib 50 mg single oral dose alone, healthy participants (itraconazole study, N = 20), read-out: AUC0–t, geometric mean (CV%)): 4.06 µg·h/mL | AUC(0-inf) ([1]; 50 mg, ripretinib 50 mg single oral dose alone, healthy participants (itraconazole study, N = 20), read-out: AUC0–∞, arithmetic mean (SD)): 4.5 µg·h/mL | AUC(0-inf) ([1]; 50 mg, ripretinib 50 mg single oral dose alone, healthy participants (itraconazole study, N = 20), read-out: AUC0–∞, geometric mean (CV%)): 4.18 µg·h/mL | Cmax ([1]; 50 mg, ripretinib 50 mg single oral dose alone, healthy participants (itraconazole study, N = 20), read-out: Cmax, arithmetic mean (SD)): 0.321 µg/mL | Cmax ([1]; 50 mg, ripretinib 50 mg single oral dose alone, healthy participants (itraconazole study, N = 20), read-out: Cmax, geometric mean (CV%)): 0.291 µg/mL | half-life ([1]; 50 mg, ripretinib 50 mg single oral dose alone, healthy participants (itraconazole study, N = 20), read-out: t1/2, arithmetic mean (SD) (converted)): 17 h | half-life ([1]; 50 mg, ripretinib 50 mg single oral dose alone, healthy participants (itraconazole study, N = 20), read-out: t1/2, geometric mean (CV%) (converted)): 16 h | AUC(0-t) ([1]; ripretinib 50 mg single oral dose + itraconazole 200 mg QD, healthy participants (N = 20), read-out: AUC0–t, arithmetic mean (SD)): 8.9 µg·h/mL | AUC(0-t) ([1]; ripretinib 50 mg single oral dose + itraconazole 200 mg QD, healthy participants (N = 20), read-out: AUC0–t, geometric mean (CV%)): 8.06 µg·h/mL | AUC(0-inf) ([1]; ripretinib 50 mg single oral dose + itraconazole 200 mg QD, healthy participants (N = 20), read-out: AUC0–∞, arithmetic mean (SD)): 9.19 µg·h/mL | AUC(0-inf) ([1]; ripretinib 50 mg single oral dose + itraconazole 200 mg QD, healthy participants (N = 20), read-out: AUC0–∞, geometric mean (CV%)): 8.31 µg·h/mL | Cmax ([1]; ripretinib 50 mg single oral dose + itraconazole 200 mg QD, healthy participants (N = 20), read-out: Cmax, arithmetic mean (SD)): 0.404 µg/mL | Cmax ([1]; ripretinib 50 mg single oral dose + itraconazole 200 mg QD, healthy participants (N = 20), read-out: Cmax, geometric mean (CV%)): 0.395 µg/mL | half-life ([1]; ripretinib 50 mg single oral dose + itraconazole 200 mg QD, healthy participants (N = 20), read-out: t1/2, arithmetic mean (SD) (converted)): 27 h | half-life ([1]; ripretinib 50 mg single oral dose + itraconazole 200 mg QD, healthy participants (N = 20), read-out: t1/2, geometric mean (CV%) (converted)): 24 h | Tmax [1, 3]: 4 h | Tmax [1, 4]: 3 h | Increase in exposure with daily itraconazole coadministration ([1]; ripretinib 50 mg + itraconazole 200 mg QD vs ripretinib alone): up to 99% | Time postdose that mean plasma concentration remained above the LLOQ ([1]; ripretinib 50 mg alone (itraconazole study)): 96 h | CL/F, arithmetic mean (SD) [1, 3]: 7 (3) L/h | CL/F, geometric mean (CV%) [1, 3]: 6 (48) L/h | CL/F, arithmetic mean (SD) [1, 4]: 13 (5) L/h | CL/F, geometric mean (CV%) [1, 4]: 12 (42) L/h | Geometric LS mean ratio of AUC0–t [1, 5]: 198% | Geometric LS mean ratio of AUC0–∞ (90% CI) [1, 5]: 199 (174–227) % | Geometric LS mean ratio of Cmax (90% CI) [1, 5]: 136% and 136 (116–159) % | Geometric LS mean ratio of AUC0–∞ (90% CI) ([1]; ripretinib 50 mg with itraconazole 200 mg QD relative to ripretinib alone, listed as ripretinib): 199% | Time postdose that mean plasma concentration remained above the LLOQ ([1]; ripretinib 50 mg with itraconazole): up to 168 hours | Deaths and serious AEs ([2]; itraconazole study, N = 20): No deaths occurred and no participants experienced serious AEs | Number of TEAEs attributed to study drug ([2]; itraconazole study, N = 20): 36 | Participants with TEAEs attributed to study drug per the investigator ([2]; itraconazole study, N = 20): 13 (65%) n (%) | Total number of TEAEs ([2]; itraconazole study, N = 20): 44 | Participants reporting any TEAE [2, 6]: 14 (70.0) n (%) | TEAE: ALT increase [2, 6]: 1 (5.0) n (%) | TEAE: AST increase [2, 6]: 0 n (%) | TEAE: Abdominal discomfort [2, 6]: 0 n (%) | TEAE: Abdominal pain [2, 6]: 3 (15.0) n (%) | TEAE: Abdominal pain lower [2, 6]: 1 (5.0) n (%) | TEAE: Amylase increase [2, 6]: 4 (20.0) n (%) | TEAE: Constipation [2, 6]: 1 (5.0) n (%) | TEAE: Diarrhea [2, 6]: 4 (20.0) n (%) | TEAE: Fatigue [2, 6]: 1 (5.0) n (%) | TEAE: Headache [2, 6]: 2 (10.0) n (%) | TEAE: Lipase increase [2, 6]: 5 (25.0) n (%) | TEAE: Nausea [2, 6]: 2 (10.0) n (%) | TEAE: Vomiting [2, 6]: 1 (5.0) n (%) | Participants reporting any TEAE ([2]; itraconazole study: ripretinib 50 mg alone and with itraconazole 200 mg QD, safety population N = 20, listed as ripretinib): 14 (70%) n (%)
